# Assay results from article PMC11477289, “Low-Basicity 5-HT6 Receptor Ligands from the Group of Cyclic Arylguanidine Derivatives and Their Antiproliferative Activity Evaluation” (International Journal of Molecular Sciences, 2024).
# Experiments:
# human 5-HT6 = biological target: T1, human 5-HT6 (Homo sapiens, UniProt P50406); assay: [3H]-LSD radioligand binding assay, 5-HT6R; conditions: HEK293 expressing human 5-HT6R, read-out: 5-HT6 Ki
# T1 construct: expressed in transfected cells
# Experimental: Next, the ligands’ affinity for the 5-HT6 receptors was evaluated in the [^3H]-LSD radioligand binding assay. Experiments were performed in a stable HEK293 cell line expressing the human 5-HT6R.
# The pellets were stored at −80 °C.
# [1] = Chromatographic hydrophobicity index on C18 column (lipophilicity); format: physicochemical
# [2] = Affinity to phospholipids, IAM column (CHI IAM); format: physicochemical; conditions: IAM.PC.DD2 column, pH 7.4
# T1 sequence (P50406 whole entry): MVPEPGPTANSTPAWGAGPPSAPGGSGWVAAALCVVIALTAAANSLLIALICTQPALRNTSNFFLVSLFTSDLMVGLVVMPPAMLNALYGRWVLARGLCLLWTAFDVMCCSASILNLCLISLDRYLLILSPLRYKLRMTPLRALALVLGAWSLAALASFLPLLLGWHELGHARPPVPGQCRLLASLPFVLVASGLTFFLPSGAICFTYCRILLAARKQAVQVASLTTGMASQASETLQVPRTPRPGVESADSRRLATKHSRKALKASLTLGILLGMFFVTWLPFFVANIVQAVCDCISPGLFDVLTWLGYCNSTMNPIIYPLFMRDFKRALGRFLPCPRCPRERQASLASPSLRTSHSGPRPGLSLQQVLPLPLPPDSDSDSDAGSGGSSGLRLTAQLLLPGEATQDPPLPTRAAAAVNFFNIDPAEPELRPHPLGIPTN
Compound,Ki (human 5-HT6) [µM],melting point [°C],other results
"O=S(=O)(NC1=Nc2cccc(Cl)c2CN1)c1c(Cl)ccc2ccccc12 [PR 52, 2-chloro-N-(5-chloro-3,4-dihydroquinazolin-2-yl)naphthalene-1-sulfonamide]",0.133 ± 0.033,267 to 270,
"COc1ccc2c(c1)N=C(NS(=O)(=O)c1cccc3ccccc13)NC2 [PR 60, N -(7-methoxy-3,4-dihydroquinazolin-2-yl)naphthalene-1-sulfonamide]",1.41 ± 0.326,213 to 217,CHI C18 pH 2.6 [1]: 88.2; CHI C18 pH 7.4 [1]: 87.0; CHI C18 pH 10.5 [1]: 90.3; CHI IAM [2]: 39.2
"COc1ccc(Cl)cc1S(=O)(=O)NC1=Nc2ccccc2CN1 [PR 25, 5-chloro-N-(3,4-dihydroquinazolin-2-yl)-2-methoxybenzene-1-sulfonamide]",4.64 ± 1.16,157 to 165,CHI C18 pH 2.6 [1]: 82.8; CHI C18 pH 7.4 [1]: 81.0; CHI C18 pH 10.5 [1]: 83.0; CHI IAM [2]: 35.3
"O=S(=O)(NC1=Nc2ccccc2CN1)c1ccc(-c2ccccc2)cc1 [PR 26, N -(3,4-dihydroquinazolin-2-yl)-[1,1′-biphenyl]-4-sulfonamide]",4.31 ± 1.08,,
"O=S(=O)(NC1=Nc2ccccc2CN1)c1cccc(Cl)c1Cl [PR 20, 2,3-dichloro-N-(3,4-dihydroquinazolin-2-yl)benzene-1-sulfonamide]",0.293 ± 0.073,,
"CC1NC(NS(=O)(=O)c2cccc3ccccc23)=Nc2c(Cl)cc(Cl)cc21 (centres unmarked) [PR 72, N -(6,8-dichloro-4-methyl-3,4-dihydroquinazolin-2-yl)naphthalene-1-sulfonamide]",0.997 ± 0.249,109 to 116,CHI C18 pH 2.6 [1]: 114.1; CHI C18 pH 7.4 [1]: 111.3; CHI C18 pH 10.5 [1]: 116.7; CHI IAM [2]: 49.3
"CC1NC(NS(=O)(=O)c2ccc3ccccc3c2)=Nc2ccccc21 (centres unmarked) [PR 34, N -(4-methyl-3,4-dihydroquinazolin-2-yl)naphthalene-2-sulfonamide]",0.702 ± 0.152,,
"O=S(=O)(NC1=Nc2ccccc2CN1)c1ccc(F)c(F)c1 [PR 15, N -(3,4-dihydroquinazolin-2-yl)-3,4-difluorobenzene-1-sulfonamide]",5.27 ± 1.33,,
"N -(3,4-dihydroquinazolin-2-yl)naphthalene-2-sulfonamide [PR 39]",4.27 ± 0.983,,
"N#Cc1cccc(S(=O)(=O)n2c(N)nc3ccccc32)c1 [PR 2, 3-[(2-amino-1H-1,3-benzodiazol-1-yl)sulfonyl]benzonitrile]",49.2 ± 1.23,,
"O=S(=O)(NC1=Nc2ccccc2CN1)c1ccc(C(F)(F)F)cc1 [PR 16, N -(3,4-dihydroquinazolin-2-yl)-4-(trifluoromethyl)benzene-1-sulfonamide]",5.1 ± 1.27,,
"O=S(=O)(NC1=Nc2ccc(Cl)cc2CN1)c1ccccc1 [PR 27, N -(6-chloro-3,4-dihydroquinazolin-2-yl)benzenesulfonamide]",1.69 ± 0.422,,
"O=S(=O)(Nc1nc2ccccc2[nH]1)c1ccccc1 [PR 10, N -(1H-1,3-benzodiazol-2-yl)benzenesulfonamide]",1.72 ± 0.429,,
"O=S(=O)(NC1=Nc2ccccc2CN1)c1c(Cl)cccc1Cl [PR 22, 2,6-dichloro-N-(3,4-dihydroquinazolin-2-yl)benzene-1-sulfonamide]",1.46 ± 0.364,168 to 174,
"O=S(=O)(NC1=Nc2ccccc2CN1)c1cccc2cccc(Cl)c12 [PR 45, 8-chloro-N-(3,4-dihydroquinazolin-2-yl)naphthalene-1-sulfonamide]",0.736 ± 0.169,103 to 105,
"CC1NC(NS(=O)(=O)c2ccccc2)=Nc2ccccc21 (centres unmarked) [PR 28, N -(4-methyl-3,4-dihydroquinazolin-2-yl)benzenesulfonamide]",4.03 ± 1.01,,
"Nc1nc2ccccc2n1S(=O)(=O)c1ccc2c(c1)CC(=O)N2 [PR 5, 5-[(2-amino-1H-1,3-benzodiazol-1-yl)sulfonyl]-2,3-dihydro-1H-indol-2-one]",14.8 ± 3.69,,

Compound,Ki (human 5-HT6) [µM],melting point [°C],other results
"Cc1c(S(=O)(=O)n2c(N)nc3ccccc32)sc2ccc(F)cc12 [PR 7, 1-[(5-fluoro-3-methyl-1-benzothiophen-2-yl)sulfonyl]-1H-1,3-benzodiazol-2-amine]",2.95 ± 0.737,,
"O=S(=O)(NC1=NCCc2ccccc2N1)c1ccc2ccccc2c1 [PR 38, N -(4,5-dihydro-1H-1,3-benzodiazepin-2-yl)naphthalene-2-sulfonamide]",1.41 ± 0.331,175 to 180,
"O=S(=O)(NC1=NCc2ccccc2N1)c1ccc2ccccc2c1 [PR 29, N -(3,4-dihydroquinazolin-2-yl)naphthalene-2-sulfonamide]",3.63 ± 0.909,,
"CC1NC(NS(=O)(=O)c2ccc3ccccc3c2)=Nc2ccc(Cl)cc21 (centres unmarked) [PR 35, N -(6-chloro-4-methyl-3,4-dihydroquinazolin-2-yl)naphthalene-2-sulfonamide]",2.38 ± 0.593,,
"Nc1nc2cc(Cl)ccc2n1S(=O)(=O)c1cccc2ccccc12 [PR 6, 5-chloro-1-(naphthalene-1-sulfonyl)-1H-1,3-benzodiazol-2-amine]",0.704 ± 0.176,,
"O=S(=O)(NC1=Nc2ccc(C(F)(F)F)cc2CN1)c1cccc2ccccc12 [PR 57, N -[6-(trifluoromethyl)-3,4-dihydroquinazolin-2-yl]naphthalene-1-sulfonamide]",1.02 ± 0.235,215 to 222,
"CC1NC(NS(=O)(=O)c2cccc3ccccc23)=Nc2ccc(Cl)cc21 (centres unmarked) [PR 69, N -(6-chloro-4-methyl-3,4-dihydroquinazolin-2-yl)naphthalene-1-sulfonamide]",0.372 ± 0.093,144 to 153,
"CN(C)c1cccc2c1CNC(NS(=O)(=O)c1cccc3ccccc13)=N2 [PR 63, N -[5-(dimethylamino)-3,4-dihydroquinazolin-2-yl]naphthalene-1-sulfonamide]",0.151 ± 0.035,,
"O=S(=O)(NC1=NCc2ccccc2N1)c1ccccc1 [PR 13, N-(3,4-dihydroquinazolin-2-yl)benzenesulfonamide]",2.61 ± 0.651,,
"O=S(=O)(NC1=Nc2ccc(F)cc2CN1)c1cccc2ccccc12 [PR 55, N -(6-fluoro-3,4-dihydroquinazolin-2-yl)naphthalene-1-sulfonamide]",1.79 ± 0.412,206 to 210,
"Nc1nc2ccccc2n1S(=O)(=O)c1ccc2ccccc2c1 [PR 4, 1-(naphthalene-2-sulfonyl)-1H-1,3-benzodiazol-2-amine]",0.33 ± 0.083,,
"Nc1nc2ccccc2n1S(=O)(=O)c1cccc2ccccc12 [PR 3, 1-(naphthalene-1-sulfonyl)-1H-1,3-benzodiazol-2-amine]",0.148 ± 0.037,,
"O=S(=O)(NC1=NCc2cc(Cl)ccc2N1)c1ccc2ccccc2c1 [PR 32, N -(6-chloro-3,4-dihydroquinazolin-2-yl)naphthalene-2-sulfonamide]",0.948 ± 0.212,,
"CN(c1nc2ccccc2n1C)S(=O)(=O)c1ccc2ccccc2c1 [PR 12, N -methyl-N-(1-methyl-1H-1,3-benzodiazol-2-yl)naphthalene-2-sulfonamide]",41.9 ± 10.5,,
"O=S(=O)(NC1=Nc2ccc(N3CCOCC3)cc2CN1)c1cccc2ccccc12 [PR 65, N -[6-(morpholin-4-yl)-3,4-dihydroquinazolin-2-yl]naphthalene-1-sulfonamide]",4.7 ± 1.08,278 to 281,
"Nc1nc2ccccc2n1S(=O)(=O)c1ccccc1 [PR 1, 1-(benzenesulfonyl)-1H-1,3-benzodiazol-2-amine]",2.16 ± 0.539,,
